Consider two compounds from US4839357A, “Renin inhibitors containing phenylalanyl-histidine replacements” (Merck & Co., Inc., priority 1987, dated 1989).

The subject of one test is hog renin. Conditions: after the injection of hog renin into nephrectomized rats; cited from earlier work.
In the next test the target is T1, renin (Homo sapiens, UniProt P00797).
T1 sequence (P00797 67-406): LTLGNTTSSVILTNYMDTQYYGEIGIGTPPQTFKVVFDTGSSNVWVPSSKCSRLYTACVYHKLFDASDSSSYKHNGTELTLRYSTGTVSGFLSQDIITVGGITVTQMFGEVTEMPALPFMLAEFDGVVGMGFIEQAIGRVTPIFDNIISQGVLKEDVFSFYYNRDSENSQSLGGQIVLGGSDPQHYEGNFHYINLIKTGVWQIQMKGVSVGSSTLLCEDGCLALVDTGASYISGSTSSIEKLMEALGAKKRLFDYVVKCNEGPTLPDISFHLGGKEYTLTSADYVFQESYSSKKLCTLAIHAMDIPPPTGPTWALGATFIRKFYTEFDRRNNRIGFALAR
In words: renin inhibition (IC50 printed in the synthesis text, no method described). Format: biochemical.

Square brackets hold non-standard residues; d marks the D form. Peptide text beside a SMILES is read from it. * marks the point of attachment. Sta = CC(C)C[C@H](N)[C@@H](O)CC(=O)O; Isovaleryl = CC(C)CC(=O)*

Consider `CC(C)CC(=O)N[C@H](C(=O)N[C@H](C(=O)N[C@@H](CC(C)C)[C@@H](O)CC(=O)N[C@@H](C)C(=O)N[C@@H](CC(C)C)[C@@H](O)CC(=O)O)C(C)C)C(C)C` [pepstatin] (Isovaleryl-VV[Sta]A[Sta]-OH), for which the “blood pressure in vivo” value in the test on hog renin was “reduces blood pressure”.

What is called IC50 is the point on the concentration scale where inhibition reaches its midpoint. On to `CC(C)S(=O)(=O)C[C@@H](CCc1ccccc1)C(=O)N[C@@H](Cc1c[nH]cn1)C(=O)N[C@@H](CC1CCCCC1)[C@@H](O)CC(=O)NC1CN2CCC1CC2` (stereo partly drawn) [3-benzyl-2-(S)-(isopropylsulfonylmethyl)propionyl-L-histidyl-(3S,4S)-4-amino-5-cyclohexyl 3-hydroxypentanoyl 3-quinuclidinyl amide], for which the half-maximal inhibitory concentration (IC50) against renin amounted to 0.011 µM.
